Columns and labels:
JAK1 = JAK1 (Homo sapiens (Human), UniProt P23458); experiment: JAK1 enzyme activity assay (Thermo Fisher SelectScreen, Z-lyte); format: biochemical; conditions: read-out: JAK1 Inhibition IC50
In short: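 Z-lyte assay with 21.2-91.5 ng JAK and […] Tyr 06 in 50 mM HEPES pH 7.0, 10 mM MgCl2, 1 mM EGTA, 0.01% BRIJ-35; 1 h kinase reaction, then development reagent. 11-point dose-response from […] to 0.34 nM, 2% DMSO vehicle; IC50 from 4-parameter logistic fit of emission ratio.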

Tyk-2 = Tyk-2 (Homo sapiens (Human), UniProt P29597); experiment: Tyk-2 enzyme activity assay (Thermo Fisher SelectScreen, Z-lyte); format: biochemical; conditions: read-out: Tyk-2 Inhibition IC50
In short: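 Z-lyte FRET assay: 3.75–15 ng TYK2 with […] Tyr 03 peptide in HEPES pH 7.0, MgCl2, EGTA, BRIJ-35; 1 h reaction, then development reagent. 11-point dose-response, 2% DMSO; IC50 via 4-parameter fit of emission ratio, background without enzyme.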

[1] = system: IFNγ stimulated STAT1 phosphorylation on Tyr701 (JAK1/2); experiment: JAK1/2 cellular target modulation: IFNγ stimulated phospho-STAT1 in PBMC; format: cell-based; conditions: human PBMC, IFNγ 10 ng/ml; read-out: Infγ-STAT1 IC50
In short: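 Thawed human PBMC (200,000/well, RPMI/10% FBS) were preincubated with compound for 1 h at 37 °C, added from 10× stocks in 1% DMSO. Stimulation and read-out: IL-2 25 ng/ml, 5 min, pSTAT5 by MSD; IL-12 1.7 ng/ml, 25 min, pSTAT4 by MSD; IFNγ 10 ng/ml, 10 min, pSTAT1 by sandwich ELISA.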

JAK2 = JAK2 (Homo sapiens (Human), UniProt O60674); experiment: JAK2 enzyme activity assay (Thermo Fisher SelectScreen, Z-lyte); format: biochemical; conditions: read-out: JAK2 Inhibition IC50
In short: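 Z-lyte FRET kinase assay: 0.12-0.5 ng JAK2 with […] Tyr 06 peptide in 50 mM HEPES pH 7.5, 0.01% BRIJ-35, 10 mM MgCl2, 1 mM EGTA, 1 h reaction before development reagent. 11-point dose-response from […] to 0.34 nM, 2% DMSO; IC50 from 4-parameter fit of emission ratio.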

Chain of JAK2 (O60674 whole entry): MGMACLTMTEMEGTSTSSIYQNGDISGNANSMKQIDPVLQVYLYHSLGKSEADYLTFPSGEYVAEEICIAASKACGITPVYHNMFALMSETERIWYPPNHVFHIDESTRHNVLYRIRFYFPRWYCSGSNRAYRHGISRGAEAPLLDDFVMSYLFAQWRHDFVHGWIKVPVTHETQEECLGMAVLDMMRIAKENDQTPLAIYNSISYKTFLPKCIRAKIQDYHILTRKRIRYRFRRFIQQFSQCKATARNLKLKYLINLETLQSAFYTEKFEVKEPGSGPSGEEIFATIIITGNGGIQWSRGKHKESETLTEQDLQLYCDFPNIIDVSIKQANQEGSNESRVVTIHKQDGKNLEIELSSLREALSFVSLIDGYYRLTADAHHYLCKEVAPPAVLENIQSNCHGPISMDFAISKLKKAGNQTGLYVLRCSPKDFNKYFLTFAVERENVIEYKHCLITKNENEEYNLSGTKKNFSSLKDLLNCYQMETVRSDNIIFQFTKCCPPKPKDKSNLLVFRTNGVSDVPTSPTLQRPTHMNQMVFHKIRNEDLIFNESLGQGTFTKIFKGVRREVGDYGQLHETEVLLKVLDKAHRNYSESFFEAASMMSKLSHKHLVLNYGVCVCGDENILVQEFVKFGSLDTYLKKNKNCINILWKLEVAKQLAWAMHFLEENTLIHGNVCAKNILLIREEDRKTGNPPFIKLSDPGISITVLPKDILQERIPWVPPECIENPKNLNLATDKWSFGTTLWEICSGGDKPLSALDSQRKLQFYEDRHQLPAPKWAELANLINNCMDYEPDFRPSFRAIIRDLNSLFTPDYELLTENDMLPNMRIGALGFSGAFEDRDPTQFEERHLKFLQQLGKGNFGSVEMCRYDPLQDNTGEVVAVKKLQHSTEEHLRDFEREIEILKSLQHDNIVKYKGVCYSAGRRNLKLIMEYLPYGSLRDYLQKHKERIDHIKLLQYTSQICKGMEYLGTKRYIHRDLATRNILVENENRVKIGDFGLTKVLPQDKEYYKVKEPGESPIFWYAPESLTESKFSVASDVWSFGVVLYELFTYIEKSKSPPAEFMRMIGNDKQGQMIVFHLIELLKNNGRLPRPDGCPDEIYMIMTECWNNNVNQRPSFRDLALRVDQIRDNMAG
Chain of Tyk-2 (P29597 whole entry): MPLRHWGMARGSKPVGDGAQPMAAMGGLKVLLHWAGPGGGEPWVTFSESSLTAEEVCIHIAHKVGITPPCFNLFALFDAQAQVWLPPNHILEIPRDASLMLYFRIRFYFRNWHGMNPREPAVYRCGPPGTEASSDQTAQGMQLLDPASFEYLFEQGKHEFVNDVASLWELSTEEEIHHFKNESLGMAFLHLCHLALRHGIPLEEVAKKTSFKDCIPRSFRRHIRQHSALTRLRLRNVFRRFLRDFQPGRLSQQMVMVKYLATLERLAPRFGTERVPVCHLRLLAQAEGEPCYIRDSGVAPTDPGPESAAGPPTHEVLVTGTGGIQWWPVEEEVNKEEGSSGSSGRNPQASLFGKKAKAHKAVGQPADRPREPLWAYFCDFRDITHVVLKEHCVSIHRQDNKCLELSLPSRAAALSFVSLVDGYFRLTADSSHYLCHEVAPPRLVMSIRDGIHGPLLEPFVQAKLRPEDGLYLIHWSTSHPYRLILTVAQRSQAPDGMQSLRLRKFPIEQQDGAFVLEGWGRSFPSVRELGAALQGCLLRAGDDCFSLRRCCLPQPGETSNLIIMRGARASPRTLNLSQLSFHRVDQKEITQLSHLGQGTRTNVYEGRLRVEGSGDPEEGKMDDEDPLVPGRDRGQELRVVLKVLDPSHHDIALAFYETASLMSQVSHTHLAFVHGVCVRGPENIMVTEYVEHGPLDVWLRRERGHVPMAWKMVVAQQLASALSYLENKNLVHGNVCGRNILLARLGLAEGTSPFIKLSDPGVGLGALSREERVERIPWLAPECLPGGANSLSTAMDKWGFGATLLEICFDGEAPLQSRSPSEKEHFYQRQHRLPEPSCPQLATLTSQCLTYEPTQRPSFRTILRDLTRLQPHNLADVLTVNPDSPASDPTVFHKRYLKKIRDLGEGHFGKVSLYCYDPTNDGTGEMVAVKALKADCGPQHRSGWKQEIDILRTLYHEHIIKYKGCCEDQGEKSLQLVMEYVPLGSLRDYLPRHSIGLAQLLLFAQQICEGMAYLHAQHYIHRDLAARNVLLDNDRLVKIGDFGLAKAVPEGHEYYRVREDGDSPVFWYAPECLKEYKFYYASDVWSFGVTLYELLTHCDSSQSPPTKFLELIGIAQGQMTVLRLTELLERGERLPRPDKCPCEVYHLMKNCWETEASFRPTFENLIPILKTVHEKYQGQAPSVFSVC
Chain of JAK1 (P23458 whole entry): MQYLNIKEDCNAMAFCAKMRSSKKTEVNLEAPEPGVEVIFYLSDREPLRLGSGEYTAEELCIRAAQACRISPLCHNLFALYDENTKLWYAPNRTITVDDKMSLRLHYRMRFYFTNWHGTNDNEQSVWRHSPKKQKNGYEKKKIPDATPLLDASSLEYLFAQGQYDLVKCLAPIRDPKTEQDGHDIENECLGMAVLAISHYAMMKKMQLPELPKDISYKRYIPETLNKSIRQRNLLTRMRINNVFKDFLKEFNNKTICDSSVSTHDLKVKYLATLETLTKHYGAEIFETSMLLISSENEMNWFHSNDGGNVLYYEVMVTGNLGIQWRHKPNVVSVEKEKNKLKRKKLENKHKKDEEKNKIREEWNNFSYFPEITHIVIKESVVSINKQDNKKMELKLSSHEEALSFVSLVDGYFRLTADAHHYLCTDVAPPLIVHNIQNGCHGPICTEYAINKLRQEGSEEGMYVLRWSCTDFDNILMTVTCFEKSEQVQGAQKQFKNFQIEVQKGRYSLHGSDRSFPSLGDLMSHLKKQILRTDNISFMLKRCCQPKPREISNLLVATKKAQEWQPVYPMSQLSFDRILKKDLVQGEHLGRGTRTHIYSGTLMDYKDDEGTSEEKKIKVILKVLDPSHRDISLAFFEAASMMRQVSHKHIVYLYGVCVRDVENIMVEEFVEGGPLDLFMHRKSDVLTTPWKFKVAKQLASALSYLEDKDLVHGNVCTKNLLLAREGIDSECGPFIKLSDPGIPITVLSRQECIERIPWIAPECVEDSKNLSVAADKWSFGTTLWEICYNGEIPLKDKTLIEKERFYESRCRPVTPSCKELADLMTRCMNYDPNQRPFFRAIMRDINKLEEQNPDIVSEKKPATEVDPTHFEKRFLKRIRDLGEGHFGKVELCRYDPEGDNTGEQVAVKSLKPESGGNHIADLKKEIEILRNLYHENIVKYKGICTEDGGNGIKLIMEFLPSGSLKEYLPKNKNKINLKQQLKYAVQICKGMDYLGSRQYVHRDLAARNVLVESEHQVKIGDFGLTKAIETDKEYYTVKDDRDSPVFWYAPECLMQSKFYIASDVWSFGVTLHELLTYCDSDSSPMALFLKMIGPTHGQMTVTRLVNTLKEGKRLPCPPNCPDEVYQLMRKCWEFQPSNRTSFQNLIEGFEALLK

IC50 (JAK1): ≤ 10 nM
IC50 (Tyk-2): ≤ 10 nM
IC50 [1]: ≤ 100 nM
IC50 (JAK2): ≤ 10 nM
Compound: CNC(=O)c1coc(-c2cnc3[nH]ccc3c2N[C@@H]2C[C@H](C)CN(C(=O)CC#N)C2)n1 [Example 31, 2-(4-(((3R,5S)-1-(2-cyanoacetyl)-5-methylpiperidin-3-yl)amino)-1H-pyrrolo[2,3-b]pyridin-5-yl)-N-methyloxazole-4-carboxamide]
